In the experiment the test system is collagenase. Nature of the experiment: Collagenase inhibition (acetyl 14C collagen hydrolysis, procedure of Sellers et al.). Format: biochemical. The conditions noted are these: 2 mM inhibitor; 35° C., 5 to 18 hours; Tris-CaCl2 pH 7.4; vs control devoid of inhibitor. As for the experimental part: The inhibitory effect of the compounds of this invention toward collagenase was determined following the procedure of Sellers et al., Biochem J. 167 353-360 (1977) whereby the 2mM of the inhibitor being tested is incubated at 35° C. for from 5 to 18 hours (depending upon the potency of the collagenase) with collagen and collagenase (buffered with Tris®-CaCl2; pH 7.4). The collagen is acetyl ^14 C collagen. The samples are centrifuged and an aliquot removed for assay on a scintillation counter. Because native collagen forms insoluble fibrils under the test conditions, the supernatant liquid contains radioactivity as a measure of hydrolysis. The collagenase activity in the presence of 2mM inhibitor is compared to activity in a control devoid of inhibitor and the results reported as percent inhibition of collagenase activity. Each of the compounds of this invention have been established as active collagenase inhibitors by the test procedure.
The following example illustrates the preparation of a typical, representative compound of the invention. The precent inhibition of collagenase activity at the 2 mM polypeptide level in accordance with the previously described standard testing procedure is provided after the preparatory description is compared to D-penicillamine alone, the latter being a known collagenase inhibitor.

`CC(C)(S)[C@@H](N)C(=O)O` [D-penicillamine] registered a Percent inhibition collagenase of 39.
